The values that follow come from article doi:10.1101/2025.11.20.689572v1 (biorxiv, 2025).

One experiment deals with T1, HTR2C (Homo sapiens, UniProt P28335).
T1 sequence (P28335 1-458): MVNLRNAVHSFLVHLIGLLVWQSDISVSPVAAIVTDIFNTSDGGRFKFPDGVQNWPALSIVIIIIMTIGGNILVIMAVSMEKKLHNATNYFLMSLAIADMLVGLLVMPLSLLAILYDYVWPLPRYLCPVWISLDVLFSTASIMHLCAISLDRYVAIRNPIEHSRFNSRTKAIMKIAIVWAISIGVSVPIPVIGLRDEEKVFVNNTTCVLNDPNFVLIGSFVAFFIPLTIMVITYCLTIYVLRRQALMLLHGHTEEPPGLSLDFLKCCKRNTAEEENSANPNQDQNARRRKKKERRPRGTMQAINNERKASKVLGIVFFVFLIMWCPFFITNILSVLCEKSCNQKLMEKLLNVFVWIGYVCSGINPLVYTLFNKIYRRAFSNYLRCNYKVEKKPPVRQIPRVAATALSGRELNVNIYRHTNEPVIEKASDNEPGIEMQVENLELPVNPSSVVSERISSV
The experiment in a line: cell-based. Also on record: species or system HEK293; Fluo-4 Direct calcium mobilization on FLIPR-Tetra. The note with it: HEK293, read-out: N-Desmethyl Xanomeline; Assay=Calcium; agonist mode, % of control agonist.

A further experiment concerns the target T2, 5-HT4 (Homo sapiens, UniProt Q13639).
T2 construct: gene HTR4
The experiment in a line: biochemical. Set-up: species or system HEK293; PDSP competitive radioligand binding, membranes of transfected HEK293 cells, filtration, Ki by Cheng-Prusoff. The note with it: read-out: N-desmethyl-xanomeline (PDSP) pKi (converted). The protocol: (§1) Competitive radioligand binding assays were performed at the NIMH Psychoactive Drug Screening Program (PDSP) using membranes from transiently transfected HEK293 cells in 96-well format as described. Complete, target-specific protocols are available at the PDSP website (https://pdsp.unc.edu/pdspweb/?site=assays). Primary screenings were run at a single test concentration (10 µM) in quadruplicate. […] Secondary assays were conducted in triplicate using 12-point serial dilutions (0, 0.1, 0.3, 1, 3, 10, 30, 100, 300 nM; 1, 3, 10 µM). Assays were performed in a final volume of 125 µL per well in binding buffer, as detailed in the NIMH PDSP protocols (e.g., standard binding buffer: 50 mM Tris-HCl, pH 7.4, 10 mM MgCl2, 0.1 mM EDTA). Radioligand concentrations were chosen near the target-specific Kd. Total and nonspecific binding were defined in the absence and presence, respectively, of 10 µM reference ligand specific for each receptor. After 90 min incubation at room temperature, reactions were terminated by vacuum filtration onto 0.3% polyethyleneimine-pretreated UniFilter-96 GF/C Microplates using a FilterMate harvester, washed three times with ice-cold buffer (50 mM Tris HCl, pH 7.4), dried, treated with MicroScint-O [compound left out] scintillation cocktails, and counted on a MicroBeta counter. Equilibrium inhibition constants (Ki) were calculated from fitted IC50 values using the Cheng–Prusoff equation [14] with the assay-specific radioligand concentration and Kd. TABLE 1. […] Results represented mean ± SEM from a minimum of 3 independent assays, each in triplicate. ND=not determined.

A further experiment has as its target DRD1 (Homo sapiens, UniProt P21728). In words: biochemical. The note with it: read-out: N-desmethyl-xanomeline (PDSP) pKi (converted). Set-up: species or system HEK293; PDSP competitive radioligand binding, membranes of transfected HEK293 cells, filtration, Ki by Cheng-Prusoff. The protocol: as §1
In a further experiment the target is T3, 5-HT1D (Homo sapiens, UniProt P28221).
T3 construct: gene HTR1D; full-length receptor; HEK293 with TRUPATH sensors (function)
T3 sequence (P28221 whole entry): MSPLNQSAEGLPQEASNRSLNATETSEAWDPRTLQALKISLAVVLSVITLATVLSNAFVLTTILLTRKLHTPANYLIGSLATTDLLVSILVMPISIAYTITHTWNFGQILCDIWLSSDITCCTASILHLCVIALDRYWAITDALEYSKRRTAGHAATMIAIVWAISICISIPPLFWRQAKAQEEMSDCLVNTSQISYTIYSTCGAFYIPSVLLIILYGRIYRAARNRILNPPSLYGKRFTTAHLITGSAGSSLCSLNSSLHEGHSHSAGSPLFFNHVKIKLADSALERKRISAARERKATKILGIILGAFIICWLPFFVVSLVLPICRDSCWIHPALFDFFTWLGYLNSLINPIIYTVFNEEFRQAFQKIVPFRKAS
In words: competitive radioligand binding, HEK293 membranes.

Another experiment concerns the target β2 (Homo sapiens, UniProt P07550). In words: biochemical. Also on record: gene ADRB2; species or system HEK293; PDSP competitive radioligand binding, membranes of transfected HEK293 cells, filtration, Ki by Cheng-Prusoff. On the procedure:
Competitive radioligand binding assays were performed at the NIMH Psychoactive Drug Screening Program (PDSP) using membranes from transiently transfected HEK293 cells in 96-well format as described. Complete, target-specific protocols are available at the PDSP website (https://pdsp.unc.edu/pdspweb/?site=assays). Primary screenings were run at a single test concentration (10 µM) in quadruplicate. […] Secondary assays were conducted in triplicate using 12-point serial dilutions (0, 0.1, 0.3, 1, 3, 10, 30, 100, 300 nM; 1, 3, 10 µM). Assays were performed in a final volume of 125 µL per well in binding buffer, as detailed in the NIMH PDSP protocols (e.g., standard binding buffer: 50 mM Tris-HCl, pH 7.4, 10 mM MgCl2, 0.1 mM EDTA). Radioligand concentrations were chosen near the target-specific Kd. […] After 90 min incubation at room temperature, reactions were terminated by vacuum filtration onto 0.3% polyethyleneimine-pretreated UniFilter-96 GF/C Microplates using a FilterMate harvester, washed three times with ice-cold buffer (50 mM Tris HCl, pH 7.4), dried, treated with MicroScint-O [compound left out] scintillation cocktails, and counted on a MicroBeta counter. Equilibrium inhibition constants (Ki) were calculated from fitted IC50 values using the Cheng–Prusoff equation [14] with the assay-specific radioligand concentration and Kd. […] ND=not determined.

The target in another experiment is T4, HTR1A (Homo sapiens, UniProt P08908).
T4 sequence (P08908 1-422): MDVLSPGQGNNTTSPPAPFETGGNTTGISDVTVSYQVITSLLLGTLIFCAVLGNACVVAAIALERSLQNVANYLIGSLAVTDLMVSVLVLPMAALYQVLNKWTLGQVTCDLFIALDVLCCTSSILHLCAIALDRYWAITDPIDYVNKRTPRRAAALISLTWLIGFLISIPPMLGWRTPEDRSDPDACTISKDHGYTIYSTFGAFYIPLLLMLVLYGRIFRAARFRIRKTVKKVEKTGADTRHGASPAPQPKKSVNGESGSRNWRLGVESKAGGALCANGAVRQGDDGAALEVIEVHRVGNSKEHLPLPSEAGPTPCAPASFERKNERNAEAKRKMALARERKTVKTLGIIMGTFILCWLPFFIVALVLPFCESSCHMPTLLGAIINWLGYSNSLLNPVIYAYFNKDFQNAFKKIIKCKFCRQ
In words: biochemical. Also on record: species or system HEK293; PDSP competitive radioligand binding, membranes of transfected HEK293 cells, filtration, Ki by Cheng-Prusoff. The protocol: as §1

For a further experiment, the target named is T5, 5-HT1E (Homo sapiens, UniProt P28566).
T5 construct: gene HTR1E
T5 sequence (P28566 whole entry): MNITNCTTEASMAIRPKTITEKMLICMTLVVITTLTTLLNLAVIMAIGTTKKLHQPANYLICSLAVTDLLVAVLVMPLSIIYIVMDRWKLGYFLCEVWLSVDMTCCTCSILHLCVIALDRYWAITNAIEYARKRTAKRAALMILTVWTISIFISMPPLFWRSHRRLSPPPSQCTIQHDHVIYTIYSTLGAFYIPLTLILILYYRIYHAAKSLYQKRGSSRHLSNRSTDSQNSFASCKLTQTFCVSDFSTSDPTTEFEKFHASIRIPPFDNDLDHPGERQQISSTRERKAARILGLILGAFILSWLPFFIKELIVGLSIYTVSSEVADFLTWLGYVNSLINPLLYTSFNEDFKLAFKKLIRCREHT
In words: biochemical. Set-up: species or system HEK293; PDSP competitive radioligand binding, membranes of transfected HEK293 cells, filtration, Ki by Cheng-Prusoff. On the procedure:
as §1

The target of the next experiment is T6, β3 (Homo sapiens, UniProt P13945).
T6 construct: gene ADRB3
T6 sequence (P13945 whole entry): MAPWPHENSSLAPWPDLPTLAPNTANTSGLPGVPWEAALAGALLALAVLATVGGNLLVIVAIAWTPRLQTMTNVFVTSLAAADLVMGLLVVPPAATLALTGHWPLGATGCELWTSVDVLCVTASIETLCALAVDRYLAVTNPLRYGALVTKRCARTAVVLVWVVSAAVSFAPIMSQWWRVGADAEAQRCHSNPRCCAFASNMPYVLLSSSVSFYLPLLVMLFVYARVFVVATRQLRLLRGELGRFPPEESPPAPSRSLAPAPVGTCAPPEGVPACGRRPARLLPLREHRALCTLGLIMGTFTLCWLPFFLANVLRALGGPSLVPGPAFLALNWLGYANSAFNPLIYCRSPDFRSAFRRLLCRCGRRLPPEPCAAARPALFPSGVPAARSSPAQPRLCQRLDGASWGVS
The experiment in a line: biochemical. Set-up: species or system HEK293; PDSP competitive radioligand binding, membranes of transfected HEK293 cells, filtration, Ki by Cheng-Prusoff. On the procedure:
as §1

A further experiment deals with HRH4 (Homo sapiens, UniProt Q9H3N8). The experiment in a line: biochemical. Also on record: species or system HEK293; PDSP competitive radioligand binding, membranes of transfected HEK293 cells, filtration, Ki by Cheng-Prusoff. On the procedure: as §1
Sequence of HRH4 (Q9H3N8 whole entry): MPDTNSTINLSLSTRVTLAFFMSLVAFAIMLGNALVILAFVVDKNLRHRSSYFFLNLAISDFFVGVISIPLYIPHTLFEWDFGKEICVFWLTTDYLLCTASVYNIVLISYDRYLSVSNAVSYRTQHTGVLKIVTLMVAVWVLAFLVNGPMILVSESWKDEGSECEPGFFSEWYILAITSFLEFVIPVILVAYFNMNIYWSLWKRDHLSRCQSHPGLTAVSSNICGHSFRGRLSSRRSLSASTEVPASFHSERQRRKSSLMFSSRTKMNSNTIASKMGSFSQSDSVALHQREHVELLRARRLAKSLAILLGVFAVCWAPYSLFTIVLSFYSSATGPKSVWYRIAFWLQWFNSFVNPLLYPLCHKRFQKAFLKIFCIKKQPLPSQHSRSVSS
The next experiment deals with T7, DAT (Homo sapiens, UniProt Q01959).
T7 construct: gene SLC6A3
T7 sequence (Q01959 whole entry): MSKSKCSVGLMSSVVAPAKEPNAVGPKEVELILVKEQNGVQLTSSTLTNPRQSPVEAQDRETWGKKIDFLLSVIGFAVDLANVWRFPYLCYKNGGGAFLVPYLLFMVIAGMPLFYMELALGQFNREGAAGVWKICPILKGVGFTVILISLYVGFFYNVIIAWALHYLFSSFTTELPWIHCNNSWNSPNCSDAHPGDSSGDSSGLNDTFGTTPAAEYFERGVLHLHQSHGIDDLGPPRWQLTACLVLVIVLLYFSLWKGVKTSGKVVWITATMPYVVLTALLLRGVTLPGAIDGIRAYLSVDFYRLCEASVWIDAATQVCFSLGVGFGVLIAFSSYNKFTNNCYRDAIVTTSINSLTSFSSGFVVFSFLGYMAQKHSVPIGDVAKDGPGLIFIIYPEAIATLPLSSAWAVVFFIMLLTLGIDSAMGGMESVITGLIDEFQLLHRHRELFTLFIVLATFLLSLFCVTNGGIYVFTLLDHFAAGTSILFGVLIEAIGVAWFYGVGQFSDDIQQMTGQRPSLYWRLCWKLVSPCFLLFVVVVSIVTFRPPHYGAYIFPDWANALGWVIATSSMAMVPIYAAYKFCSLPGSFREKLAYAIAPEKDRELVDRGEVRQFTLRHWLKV
The experiment in a line: biochemical. Also on record: species or system HEK293; PDSP competitive radioligand binding, membranes of transfected HEK293 cells, filtration, Ki by Cheng-Prusoff. On the procedure:
as §1

Each structure is given as a SMILES string.

T2 sequence (Q13639 whole entry): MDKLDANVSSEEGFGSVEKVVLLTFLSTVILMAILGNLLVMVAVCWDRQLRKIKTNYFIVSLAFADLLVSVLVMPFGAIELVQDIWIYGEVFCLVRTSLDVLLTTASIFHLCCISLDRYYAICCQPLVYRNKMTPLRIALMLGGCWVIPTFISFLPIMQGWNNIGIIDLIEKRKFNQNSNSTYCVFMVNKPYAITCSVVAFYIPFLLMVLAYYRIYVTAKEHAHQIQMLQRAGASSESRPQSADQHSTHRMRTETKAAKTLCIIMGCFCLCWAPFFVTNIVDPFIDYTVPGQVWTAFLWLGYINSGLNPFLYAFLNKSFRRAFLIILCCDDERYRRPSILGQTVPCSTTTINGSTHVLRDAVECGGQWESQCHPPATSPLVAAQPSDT
Sequence of DRD1 (P21728 whole entry): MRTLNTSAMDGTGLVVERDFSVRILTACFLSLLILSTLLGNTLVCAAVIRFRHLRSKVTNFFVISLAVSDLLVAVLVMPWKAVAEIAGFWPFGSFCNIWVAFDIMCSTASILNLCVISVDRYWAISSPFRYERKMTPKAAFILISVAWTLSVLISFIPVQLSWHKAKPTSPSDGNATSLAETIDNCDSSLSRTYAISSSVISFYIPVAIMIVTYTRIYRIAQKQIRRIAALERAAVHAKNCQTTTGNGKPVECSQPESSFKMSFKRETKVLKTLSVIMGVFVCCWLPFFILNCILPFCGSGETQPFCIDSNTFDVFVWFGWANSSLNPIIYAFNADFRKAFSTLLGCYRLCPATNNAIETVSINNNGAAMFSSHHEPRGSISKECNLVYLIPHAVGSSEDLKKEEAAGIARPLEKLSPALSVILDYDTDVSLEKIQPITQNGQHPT
Sequence of β2 (P07550 whole entry): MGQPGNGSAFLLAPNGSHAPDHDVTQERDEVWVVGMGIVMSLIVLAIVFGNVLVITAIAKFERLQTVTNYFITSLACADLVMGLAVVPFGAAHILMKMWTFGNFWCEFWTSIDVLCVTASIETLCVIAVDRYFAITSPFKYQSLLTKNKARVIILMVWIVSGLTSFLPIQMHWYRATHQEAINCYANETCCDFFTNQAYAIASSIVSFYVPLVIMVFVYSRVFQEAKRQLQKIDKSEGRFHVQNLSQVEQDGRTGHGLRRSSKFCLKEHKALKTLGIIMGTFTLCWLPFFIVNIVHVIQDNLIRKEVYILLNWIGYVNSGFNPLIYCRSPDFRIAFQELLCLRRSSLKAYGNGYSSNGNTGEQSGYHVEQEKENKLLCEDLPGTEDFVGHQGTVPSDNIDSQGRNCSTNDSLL

Turning to `CCCCCCOc1nsnc1C1=CCCNC1` [N-desmethylxanomeline], on HTR2C, the Emax came out at 59%. In addition, the Ki on 5-HT4 was 3.72 µM; on DRD1, 2.34 µM; on 5-HT1D it was 0.0389 µM.
Take `CCCCCCOc1nsnc1C1=CCCN(C)C1` [Xanomeline]: the Ki at β2 is more than 10 µM; at HTR1A, 5.89 µM; at 5-HT1E, more than 10 µM; on β3, more than 10 µM; on HRH4 it was more than 10 µM; at DAT, more than 10 µM.
